In this assay the test system is tumors. Nature of the assay: Trial 1403-0002 combination with ezabenlimab (and anti-LAG3-1): tumor response. Type of assay: in vivo, human.
Where [1] appears, read: triple combination (11 treated).

Regarding `Cc1c(C(=O)O)ccc2c3n(nc12)[C@@H]1[C@H](C3)N(CC2CC2)[C@@]2(C(=O)Nc3cc(Cl)ccc32)[C@H]1c1cccc(Cl)c1F` [MDM2-antagonist of formula I, (2′S,3′S,3a'S,10a'S)-6-chloro-3′-(3-chloro-2-fluorophenyl)-1′-(cyclopropylmethyl)-6′-methyl-2-oxo-1,2,3′,3a′,10′,10a′-hexahydro-1′H-spiro[indole-3,2′-pyrrolo[2′,3′:4,5]pyrrolo[1,2-b]indazole]-7′-carboxylic acid], the “patients with confirmed partial response (PR)” value (shortened to “patients … (PR)”) (double combination with 240 mg ezabenlimab D1 q3w, nine evaluable patients) was “four”. Also, where the note is “double combination, 30 mg + 240 mg ezabenlimab D1 q3w”, the “patients … (PR)” value is “one”. In addition, under “double combination, 30 mg + 240 mg ezabenlimab D1 q3w, adenocarcinoma”, the “patients with unconfirmed PR” value is on record as “one”. In addition, the “patients … (PR)” value (double combination, 45 mg + 240 mg ezabenlimab D1 q3w) is recorded as “three”. For the same compound, the “patients with stable disease” value (double combination, nine evaluable patients) was “Four”. Besides, under setting [1], the “Confirmed partial response, % of patients” value is on record as “(9.1) %”; the “Confirmed partial response, number of patients” value is recorded as 1; the “Disease control, % of patients” value is “(72.5) %”; the “Disease control, number of patients” value is recorded as 8. Also, under setting [1], the “Progressive disease, % of patients” value is “(18.2) %”; the “Progressive disease, number of patients” value was 2; the “Stable disease, number of patients” value is reported as 7; the “Unconfirmed partial response, % of patients” value is recorded as “(9.1) %”. Under setting [1], the “Unconfirmed partial response, number of patients” value came out at 1. Further, where the note is “triple combination, MDM2-amplified liposarcoma and MDM2-amplified urothelial carcinoma patient”, the “Partial Responses (PRs), number” value was found to be 2.

Source of the values: patent publication US20230058171A1, “NEW ORAL PHARMACEUTICAL COMPOSITION FOR CANCER THERAPY” (BOEHRINGER INGELHEIM INTERNATIONAL GMBH, priority 2021, published 2023).
